Data published in US10501428B2, “Thymoquinone derivatives for treatment of cancer” (United Arab Emirates University, priority 2014, dated 2019).
Where two headings read alike, the source gives them in different places.

What was measured:
[1] = tested on: Human lung cancer cells A549; test: CellTiter-Glo cell viability assay, A549 lung cancer cells; format: cell-based; conditions: for cytotoxicity at 100 µM / IC50: Homo sapiens; for cytotoxicity at 100 µM: A549, 100 μM, relative to control (DMSO), read-out: decrease in cell viability; for IC50: A549, 24 hours
Procedure: (§1) Human lung cancer cells A549, human breast cancer cells MDA-MB-231 and colorectal cancer cells HT29, were used to test the antiproliferative activity of the synthesised compounds. Human lung cancer cells A549 were maintained in RPMI 1640 medium (Hyclone Laboratories, USA), human breast cancer cells MDA-MB-231 and colorectal cancer cells HT29 were maintained in DMEM medium (Hyclone Laboratories, USA). All media was supplemented with antibiotics (penicillin 50 U/ml; streptomycin 50 ug/ml) (Hyclone Laboratories, USA).
(§2) Cells were seeded at a density of 5,000 cells/well into 96-well plates. After 24 h, cells were treated for 24 and 48 h with different concentrations of compounds TQ1-5 and 8 (5-100 μM), in triplicate. Control cultures were treated with 0.1% DMSO. The effect of the compounds TQ1-8 on cell viability was determined using the CellTiter-Glo Luminescent Cell Viability assay (Promega Corporation, Madison, USA), based on quantification of ATP, which signals the presence of metabolically active cells. The luminescent signal was measured using the GLOMAX Luminometer system. Data were presented as proportional viability (%) by comparing the treated group with the untreated cells, the viability of which is assumed to be 100%.

[2] = tested on: G-quadruplex DNA; test: Melting temperature curves of G-quadruplex and TQ complexes by CD; format: binding, human; conditions: for Tm: equimolar G-quadruplex and TQ 3.93×10^−6 M, Tris-KCl buffer pH 7.4, CD at 293 nm; for Δ Tm: versus G-quadruplex DNA alone (70.0 ° C.)
Procedure: (§3) A 2 ml of the stock single stranded DNA; 5′-[…]-3′ (SEQ ID NO: 1) was gently heated up to 95° C., incubated for 10 minutes and then left to cool to room temperature. Resultant solution was kept in fridge at 4° C. overnight.
Melting temperature curves for G-quadruplex and their TQs adducts were constructed using CD spectral measurements.
A 1 ml telomeric G-quadruplex (3.93×10^−6 M) in Tris-KCl-buffer pH7.4, was heated in 1-5° C. increments in the range 25-95° C. using 5 minutes incubation time intervals. CD spectra were recorded in the range 200-400 nm using 50 nm/min, 1 nm band width and 3 accumulations at each point. CD spectra were baseline corrected against blank solution and CD intensities at 293 nm were plotted versus temperature.
Similarly G-quadruplex-TQ1-8 1 mL complex solutions that were 3.93×10^−6 M of G-quadruplex and 3.93×10−6 M of TQs were heated up to 95° C. and measured. The solutions were prepared by mixing equi-molar amounts of G-quadruplex (27.3 μL, 1.44×10^−4 M) with TQ compounds 1-8 (39.30 μL, 1×10^−4 M) in 1 mL KCl-buffer, pH 7.4. CD spectra were baseline corrected and CD intensities at 293 nm were plotted versus temperature.

[3] = tested on: G-quadruplex DNA; test: Fluorescence titration of TQs with G-quadruplex DNA (modified Scatchard); format: binding, human; conditions: non-linear regression, modified Scatchard equation
Procedure: as §3
To 3 ml of 5×10^−5 M of each of compounds TQ1-8 in Tris-KCl-buffer, pH 7.4, successive portions of G-quadruplex DNA (1.44×10^−4 M) were added. After each addition, the TQ solution was stirred for 20 seconds, incubated for 3 min and its emission was scanned in the range 300-600 nm using excitation Amax of 280 nm and slit width of 10.00 nm. Titration stopped when no change in fluorescence intensity was observed.
Scatchard plots were used to determine the binding affinity of the thymoquinone derivative compounds to G-quadruplex based on fluorescence titration, keeping the compounds concentration constant and varying DNA amounts.
Dependant binding sites may have synergistic (the first bound ligand encourage the next binding one) or antagonistic (the first bound ligand suppress the next binding one) effects on each other, a phenomenon known as the neighbor exclusion effect. Non-linear regression based on a modified Scatchard equation gave the binding constants and number of binding sites shown in Table 3. Compound TQ8 has shown the highest binding constant (1.33×10^7 M^−1) and compound TQ5 has shown the lowest binding constant (7.76×10^4 M^−1)

[4] = tested on: human breast cancer cells MDA-MB-231; test: CellTiter-Glo cell viability assay, MDA-MB-231 breast cancer cells; format: cell-based; conditions: for cytotoxicity at 100 µM: MDA-MB-231, 100 μM, read-out: loss in cell viability
Procedure: as §1, §2

[5] = tested on: colorectal cancer cells HT29; test: CellTiter-Glo cell viability assay, HT29 colorectal cancer cells; format: cell-based; conditions: Homo sapiens, HT-29; for cytotoxicity at 100 µM: HT29, 100 μM, read-out: loss in cell viability
Procedure: as §1, §2

[6] = tested on: Human lung cancer cells A549; conditions: value has been reported, read-out: IC50 A549 (parent TQ, reported); cited from earlier work

Row | SMILES | IC50 [1] [µM] | binding constant K [3] [M⁻¹] | melting point [°C] | IC50 ([4]; MDA-MB-231, 24 hours) [µM] | IC50 ([5]; HT29, 24 hours) [µM] | cytotoxicity at 100 µM ([1]; 24 hours) [%] | cytotoxicity at 100 µM ([1]; 48 hours exposure) [%] | Tm [2] [°C] | Δ Tm [2] [°C] | potency compared to the parent TQ molecule ([1]; A549 IC50 comparison) [%] | cytotoxicity at 100 µM ([4]; 24 hours exposure) [%] | cytotoxicity at 100 µM ([4]; 48 hours exposure) [%] | cytotoxicity at 100 µM ([5]; 24 hours exposure) [%] | cytotoxicity at 100 µM ([5]; 48 hours exposure) [%] | IC50 [6] [µM]
1 | CC1=C(NCc2cc(C(F)(F)F)cc(C(F)(F)F)c2)C(=O)C(C(C)C)=CC1=O [TQ5, 5-Isopropyl-2-methyl-3-(3,5-ditrifluoromethylbenzylamino)-1,4-benzoquinone] | 105 | 77600 | 111 to 114 | – | – | 33 | 48 | 77.0 | 7.0 | – | – | – | – | – | –
2 | CC1=C(NCCO)C(=O)C(C(C)C)=CC1=O [TQ6, 5-isopropyl-2-methyl-3-(2-hydroxyethylamino)-1,4-benzoquinone] | – | 1.49e+06 | – | – | – | – | – | 80.0 | 10.0 | – | – | – | – | – | –
3 | CC1=C(N)C(=O)C(C(C)C)=CC1=O [TQ8, 3-amino-5-isopropyl-2-methyl-1,4-benzoquinone] | 35 | – | 68 to 72 | 45.1 | 55.8 | 99 | 100 | – | – | ≥ 200 | 83 | 98 | 97 | 99 | –
4 | CC1=CC(=O)C(C(C)C)=CC1=O [TQ, 2-isopropyl-5-methyl-1,1,4-benzoqinone] | – | – | – | – | – | – | – | – | – | – | – | – | – | – | 78.3

More lines, main results first:

Row | IC50 [1] [µM] | binding constant K [3] [M⁻¹] | melting point [°C] | IC50 ([4]; MDA-MB-231, 24 hours) [µM] | IC50 ([5]; HT29, 24 hours) [µM] | SMILES | cytotoxicity at 100 µM ([1]; 24 hours) [%] | cytotoxicity at 100 µM ([1]; 48 hours exposure) [%] | Tm [2] [°C] | Δ Tm [2] [°C] | potency compared to the parent TQ molecule ([1]; A549 IC50 comparison) [%] | cytotoxicity at 100 µM ([4]; 24 hours exposure) [%] | cytotoxicity at 100 µM ([4]; 48 hours exposure) [%] | cytotoxicity at 100 µM ([5]; 24 hours exposure) [%] | cytotoxicity at 100 µM ([5]; 48 hours exposure) [%] | IC50 [6] [µM]
5 | 74.3 | 113000 | 92 to 95 | – | – | CC1=C(NCCN2CCOCC2)C(=O)C(C(C)C)=CC1=O [TQ1, 5-Isopropyl-2-methyl-3-((2-morpholinoethyl)amino)-1,4-benzoquinone] | 15 | 33 | 79.0 | 9.0 | – | – | – | – | – | –
6 | 84.3 | 567000 | 110.5 to 112 | – | – | CC1=C(NCc2ccc(C(F)(F)F)cc2)C(=O)C(C(C)C)=CC1=O [TQ2, 5-Isopropyl-2-methyl-3-(4-trifluoromethylbenzylamino)-1,4-benzoquinone] | 32 | 57 | 76.0 | 6.0 | – | – | – | – | – | –
7 | 83.2 | 330000 | 80 to 82.5 | – | – | CC1=C(NCc2ccc(F)cc2)C(=O)C(C(C)C)=CC1=O [TQ3, 5-Isopropyl-2-methyl-3-(4-fluorobenzylamino)-1,4-benzoquinone] | 29 | 64 | 76.0 | 6.0 | – | – | – | – | – | –
8 | 88.7 | 95200 | 83 to 84.5 | – | – | CC1=C(NCc2ccccc2)C(=O)C(C(C)C)=CC1=O [TQ4, 5-Isopropyl-2-methyl-3-(benzylamino)-1,4-benzoquinone] | 17 | 58 | 76.0 | 6.0 | – | – | – | – | – | –
9 | – | 1.17e+06 | – | – | – | COc1ccc(CNC2=C(C)C(=O)C=C(C(C)C)C2=O)cc1OC [TQ7, 5-isopropyl-2-methyl-3-(3,4-dimethoxylbenzylamino)-1,4-benzoquinone] | – | – | 77.0 | 7.7 | – | – | – | – | – | –
